According to article PMC3392958, “Assay Format as a Critical Success Factor for Identification of Novel Inhibitor Chemotypes of Tissue-Nonspecific Alkaline Phosphatase from High-Throughput Screening” (Molecules, 2010):
pIC50: −log10 of the molar value. Read-outs that look alike come from different tables or passages of the source. One block for each compound: values may come before it.

How the values were obtained:
[1] = target: T1, IAP (Homo sapiens, UniProt P09923); experiment: IAP luminescent assay (CDP-star); type: biochemical
T1 construct: made in house; host or cells: COS-1 cells, transient expression; dialyzed serum-free conditioned medium
T1 sequence (P09923 20-503 limits assumed): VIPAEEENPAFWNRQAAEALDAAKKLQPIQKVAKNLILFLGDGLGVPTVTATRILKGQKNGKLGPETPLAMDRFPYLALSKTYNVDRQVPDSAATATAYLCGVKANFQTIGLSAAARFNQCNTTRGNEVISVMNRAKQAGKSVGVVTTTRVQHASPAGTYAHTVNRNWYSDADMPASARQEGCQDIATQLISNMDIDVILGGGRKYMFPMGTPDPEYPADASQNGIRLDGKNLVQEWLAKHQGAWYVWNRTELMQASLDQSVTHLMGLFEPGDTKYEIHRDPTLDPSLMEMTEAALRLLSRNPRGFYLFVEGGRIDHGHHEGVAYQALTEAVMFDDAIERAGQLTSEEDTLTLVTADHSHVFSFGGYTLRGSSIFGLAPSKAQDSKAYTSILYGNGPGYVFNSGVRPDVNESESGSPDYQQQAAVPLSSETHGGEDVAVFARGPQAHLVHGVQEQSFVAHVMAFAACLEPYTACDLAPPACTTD
Method: (§1) Selectivity of Primary Actives Against other Phosphatases: To assess the selectivity of compounds across the alkaline phosphatase family, luminescent assays were developed for human PLAP and human IAP with the same CDP-Star reagent.
(§2) Development of the novel luminescent TNAP assay using CDP-star substrate and detailed protocol of its application for HTS is described in more detail elsewhere. […] Briefly, the assay was 50 μM CDP-star substrate in assay buffer containing 100 mM DEA-HCl (pH 9.8), 1 mM MgCl2, and 20 μM ZnCl2. The luminescence signal was measured after a 30-min incubation at room temperature on an EnVision plate reader (PerkinElmer, Waltham, MA). […] Detailed protocols can be found in the respective AIDs, however, the final buffer conditions were 100 mM DEA, pH 9.8, 1.0 mM MgCl2, 0.02 mM ZnCl2 for both PLAP and IAP.

[2] = target: T2, human PLAP (Homo sapiens, UniProt P05187); experiment: PLAP luminescent assay (CDP-star); type: biochemical
T2 construct: made in house; host or cells: COS-1 cells, transient expression; dialyzed serum-free conditioned medium
T2 sequence (P05187 23-506 limits assumed): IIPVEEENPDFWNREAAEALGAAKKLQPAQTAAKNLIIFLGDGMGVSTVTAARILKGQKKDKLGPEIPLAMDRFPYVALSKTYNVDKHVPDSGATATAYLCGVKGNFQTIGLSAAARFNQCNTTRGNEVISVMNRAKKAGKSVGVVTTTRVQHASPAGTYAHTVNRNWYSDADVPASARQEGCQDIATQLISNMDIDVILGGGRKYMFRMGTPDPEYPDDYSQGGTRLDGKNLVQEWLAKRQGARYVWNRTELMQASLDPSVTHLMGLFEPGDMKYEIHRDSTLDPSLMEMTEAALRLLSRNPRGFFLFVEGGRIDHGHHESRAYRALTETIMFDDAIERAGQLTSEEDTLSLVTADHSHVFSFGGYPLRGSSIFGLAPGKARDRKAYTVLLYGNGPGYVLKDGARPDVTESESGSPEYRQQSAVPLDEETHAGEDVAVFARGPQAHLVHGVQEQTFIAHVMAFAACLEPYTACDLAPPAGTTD
Method: as §1, §2

[3] = target: T3, TNAP (Homo sapiens, UniProt P05186); experiment: TNAP luminescent assay (CDP-star substrate, 100 mM DEA); type: biochemical; settings: for improvement in TNAP potency over parent compound: MLS-0091995 vs CID-646303, MLS-0111547 vs MLS-0004120
T3 construct: made in house; host or cells: COS-1 cells, transient expression; dialyzed serum-free conditioned medium
T3 sequence (P05186 18-501 limits assumed): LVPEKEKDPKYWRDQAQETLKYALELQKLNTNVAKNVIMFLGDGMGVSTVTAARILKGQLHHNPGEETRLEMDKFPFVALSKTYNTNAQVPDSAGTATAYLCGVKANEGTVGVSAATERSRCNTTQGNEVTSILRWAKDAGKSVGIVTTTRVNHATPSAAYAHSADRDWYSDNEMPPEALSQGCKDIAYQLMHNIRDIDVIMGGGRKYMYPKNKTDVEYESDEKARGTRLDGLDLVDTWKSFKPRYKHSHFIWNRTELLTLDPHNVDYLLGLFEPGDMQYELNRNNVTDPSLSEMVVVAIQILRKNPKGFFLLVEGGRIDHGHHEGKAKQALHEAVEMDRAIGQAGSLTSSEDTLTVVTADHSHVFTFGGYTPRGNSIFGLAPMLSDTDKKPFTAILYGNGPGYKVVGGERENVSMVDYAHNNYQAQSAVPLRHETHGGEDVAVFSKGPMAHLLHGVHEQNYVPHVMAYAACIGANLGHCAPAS
Method: as §2

[4] = target: T3, TNAP; experiment: TNAP colorimetric assay (pNPP substrate, OD405, 1M DEA); type: biochemical
Method: (§3) The colorimetric TNAP assay was performed as previously described with slight modifications.

[5] = target: T3, TNAP; parameters: method as in PMID 19556612; settings: three DEA concentrations tested; cited from earlier work
[6] = target: T3, TNAP; experiment: TNAP colorimetric malachite green phosphate detection (MG) assay; type: biochemical; settings: fresh solid samples from vendors; read-out: IC50 SAR-MG
Method: as §3

[7] = catechol series, read-out: IAP IC50
[8] = catechol series, read-out: PLAP IC50
[9] = TNAP, read-out: IC50 (Figure 6, pyrazole series optimization)
[10] = luminescence-based assay, 0.1M DEA, read-out: TNAP IC50
[11] = compounds from MLSMR in liquid form, read-out: IC50 HTS-Color
[12] = fresh solid samples from vendors, read-out: IC50 SAR-Color
[13] = compounds from MLSMR in liquid form, read-out: IC50 HTS-Lumi
[14] = fresh solid samples from vendors, read-out: IC50 SAR-Lumi
[15] = read-out: Selectivity Panel IC50 TNAP
[16] = read-out: Selectivity Panel IC50 IAP
[17] = read-out: Selectivity Panel IC50 PLAP
[18] = phtalimide triazole series, read-out: IC50 TNAP- Lumi
[19] = phtalimide triazole series, read-out: IC50 IAP-Lumi
[20] = bisarylsulfonamide series, NA = inactive (up to 100 µM), read-out: TNAP-Lumi IC50
[21] = optimized pyrazole series, read-out: TNAP Lumi IC50

SMILES: O=C(Cn1ccnc1)c1ccc(O)c(O)c1 [Compound 1]
- pIC50 [1, 7]: 4.52
- pIC50 [2, 8]: 5.68

SMILES: O=C(CNc1nc2ccccc2[nH]1)c1ccc(O)c(O)c1 [Compound 2]
- pIC50 [2, 8]: 5.04

SMILES: O=C(O)c1[nH]nc2c1COc1ccccc1-2 [MLS-0004120]
- pIC50 [3, 9]: 5.89
- pIC50 [3, 10]: 5.88

SMILES: O=C(O)c1cc(-c2ccccc2Cl)[nH]n1 [MLS-0005718]
- pIC50 [4, 11]: < 4.00
- pIC50 [4, 12]: < 4.00
- pIC50 [3, 9]: 6.00
- pIC50 [3, 13]: 6.01
- pIC50 [3, 14]: 6.13
- pIC50 [3, 15]: 6.13
- mechanism of TNAP inhibition with respect to DEA [5]: competitive
- pIC50 [1, 16]: 4.36
- pIC50 [6]: < 4.00
- pIC50 [2, 17]: < 4.00

SMILES: COc1ccc(C)cc1S(=O)(=O)Nc1cccnc1 [MLS-0010847]
- pIC50 [4, 11]: 6.15
- pIC50 [4, 12]: 6.08
- pIC50 [3, 13]: 5.74
- pIC50 [3, 14]: 6.03
- pIC50 [3, 15]: 6.03
- pIC50 [1, 16]: < 4.00
- pIC50 [6]: 6.02
- pIC50 [2, 17]: < 4.00

SMILES: Oc1cc(-c2cccc3ccccc23)[nH]n1 [MLS-0039961]
- pIC50 [4, 11]: 4.68
- pIC50 [4, 12]: 4.34
- pIC50 [3, 13]: 5.49
- pIC50 [3, 14]: 5.34
- mechanism of TNAP inhibition with respect to DEA [5]: noncompetitive
- pIC50 [1, 16]: < 4.00
- pIC50 [6]: 4.13
- pIC50 [2, 17]: < 4.00

SMILES: O=C1C2CC=CCC2C(=O)N1c1n[nH]c(Cc2ccccc2)n1 (centres unmarked) [MLS-0067142]
- pIC50 [4, 11]: < 4.00
- pIC50 [4, 12]: < 4.00
- pIC50 [3, 13]: 6.62
- pIC50 [3, 18]: 6.68
- pIC50 [3, 15]: 6.72
- mechanism of TNAP inhibition with respect to DEA [5]: competitive
- pIC50 [1, 19]: 6.27
- pIC50 [1, 16]: 6.27
- pIC50 [6]: < 4.00
- pIC50 [2, 17]: 5.51

SMILES: COc1ccc(OC)c(S(=O)(=O)Nc2cccnc2)c1 [MLS-0068486]
- reduction in TNAP potency compared with the lead structure CID-2931238 [3]: roughly 4 fold
- pIC50 [3, 20]: 6.04

SMILES: COc1ccc(S(=O)(=O)Nc2cnc3ccccc3c2)cc1OC [MLS-0090842]
- activity against TNAP in vitro ([3]; luminescence-based assay): inactive

SMILES: COc1cccc(S(=O)(=O)Nc2cnc3ccccc3c2)c1 [MLS-0090844]
- reduction in TNAP potency compared with the lead structure CID-2931238 [3]: 100 fold
- pIC50 [3, 20]: 4.59

SMILES: O=S(=O)(Nc1cnc2ccccc2c1)c1ccccc1 [MLS-0090845]
- pIC50 [3, 10]: < 4.00

SMILES: O=C1C2CC=CCC2C(=O)N1c1nnc(-c2ccco2)[nH]1 (centres unmarked) [MLS-0091966]
- pIC50 [3, 18]: 5.33
- selectivity for IAP over TNAP [1]: 10 fold
- pIC50 [1, 19]: 6.39

SMILES: O=C1C2CC=CCC2C(=O)N1c1nnc(-c2cccnc2)[nH]1 (centres unmarked) [MLS-0091977]
- pIC50 [3, 18]: 4.98
- selectivity for IAP over TNAP [1]: 6 fold

SMILES: O=C1c2ccccc2C(=O)N1c1nc(Cc2ccccc2)n[nH]1 [MLS-0091978]
- pIC50 [3, 18]: 6.17

SMILES: O=C1C2CC=CCC2C(=O)N1c1nnc[nH]1 (centres unmarked) [MLS-0091980]
- activity against TNAP in vitro ([3]; luminescence-based assay): elimination of activity
- pIC50 [3, 18]: < 4.00
- activity against IAP [1]: elimination of activity
- pIC50 [1, 19]: < 4.00

SMILES: O=C1C2CCCCC2C(=O)N1c1nc(Cc2ccccc2)n[nH]1 (centres unmarked) [MLS-0091981]
- pIC50 [3, 18]: 5.80
- pIC50 [1, 19]: 5.96

SMILES: O=C1C2C3C=CC(C3)C2C(=O)N1c1n[nH]c(CCc2ccccc2)n1 (centres unmarked) [MLS-0091982]
- pIC50 [3, 18]: 4.51

SMILES: O=C1C2CCCCC2C(=O)N1c1nc(CCc2ccccc2)n[nH]1 (centres unmarked) [MLS-0091984]
- pIC50 [3, 18]: < 4.00

SMILES: O=C1C2CC=CCC2C(=O)N1c1nnc(CCc2ccccc2)[nH]1 (centres unmarked) [MLS-0091987]
- pIC50 [3, 18]: 4.55
- selectivity for IAP over TNAP [1]: 40 fold
- pIC50 [1, 19]: 6.14

SMILES: COC(=O)c1cc(-c2ccc(Cl)cc2Cl)n[nH]1 [MLS-0091995]
- improvement in TNAP potency over parent compound [3]: 2 fold
- pIC50 [3, 10]: 6.30

SMILES: O=C(c1[nH]nc2c1COc1ccccc1-2)N1CCCC1 [MLS-0111547]
- improvement in TNAP potency over parent compound [3]: 3 fold
- pIC50 [3, 9]: 6.30
- pIC50 [3, 10]: 6.32

SMILES: COc1ccc(OC)c(S(=O)(=O)Nc2ccc3ncccc3c2)c1 [MLS-0111639]
- activity against TNAP in vitro ([3]; luminescence-based assay): eliminates activity

SMILES: COc1ccc(OC)c(C(=O)Nc2cnc3ccccc3c2)c1 [MLS-0111666]
- activity against TNAP in vitro ([3]; luminescence-based assay): inactive

Second part, the compound after the results:

- activity against TNAP in vitro ([3]; luminescence-based assay): inactive
SMILES: COc1ccc(OC)c(CNc2cnc3ccccc3c2)c1 [MLS-0111667]

- pIC50 [3, 21]: 7.28
SMILES: NNC(=O)c1cc(-c2ccc(Cl)cc2Cl)n[nH]1 [MLS-0146145]

- pIC50 [3, 21]: 7.12
SMILES: CN(C)C(=O)c1cc(-c2ccc(Cl)cc2Cl)n[nH]1 [MLS-0146148]

- pIC50 [3, 21]: 7.62
SMILES: CC(C)NC(=O)c1cc(-c2ccc(Cl)cc2Cl)n[nH]1 [MLS-0146149]

- pIC50 [3, 21]: 7.70
SMILES: O=C(NCCO)c1cc(-c2ccc(Cl)cc2Cl)n[nH]1 [MLS-0146161]

- pIC50 [3, 21]: 7.38
SMILES: O=C(NCCO)c1cc(-c2cc(F)c(Cl)cc2Cl)n[nH]1 [MLS-0146165]

- pIC50 ([3]; catechol series, read-out: TNAP IC50): 5.07
- pIC50 [1, 7]: 4.31
SMILES: Cc1cc(C)nc(SCC(=O)c2ccc(O)c(O)c2)n1 [MLS-0315687]

- selectivity as inhibitor of PLAP over IAP ([2]; catechol series): over 27 fold
- selectivity as inhibitor of PLAP over TNAP ([2]; catechol series): over 27 fold
- pIC50 [2, 8]: 5.38
SMILES: CCc1nccn1CC(=O)c1ccc(O)c(O)c1 [MLS-0315848]

- selectivity as inhibitor of PLAP over IAP ([2]; catechol series): 10 fold
- selectivity as inhibitor of PLAP over TNAP ([2]; catechol series): 40 fold
SMILES: Cc1nc2ccccc2n1CC(=O)c1ccc(O)c(O)c1 [MLS-0315854]

- selectivity as inhibitor of PLAP over IAP ([2]; catechol series): > 25 fold
- selectivity as inhibitor of PLAP over TNAP ([2]; catechol series): more than 50 fold
SMILES: Cc1cnn(CC(=O)c2ccc(O)c(O)c2)c1 [MLS-0390945]
